Our source for the GI50 and IC50 values is US10894048B2, “Antitumor drug for intermittent administration of FGFR inhibitor” (priority 2013, dated 2021).

The term GI50 denotes the concentration giving 50% growth inhibition. Higher therefore signals less potent growth inhibition. Usually IC50 stands for the point on the concentration scale where inhibition reaches its midpoint.

Experiment [1] deals with Human-derived gastric cancer OCUM-2MD3 cells. The settings on record: OCUM-2MD3, 72 h.
Protocol: Human-derived gastric cancer OCUM-2MD3 cells, which overexpressed FGFR2, were subcultured daily in a Dulbecco's modified Eagle's medium (DMEM) containing 10% fetal bovine serum (FBS) at a cell density of not more than 80%. In order to initiate a test of the cell growth-inhibitory effect of the compounds, the OCUM-2MD3 cells were suspended in the above DMEM medium and seeded in a 96-well flat-bottom plate so that each well contained 3,000 cells. Then, the cells were cultured in an incubator containing 5% carbon dioxide gas at 37° C. for one day. […] The DMSO solution of the test compound was diluted with the medium used for cultivation, and the diluted solution was added to each well of the cell culture plate so that the final concentration of DMSO became 0.5%. […] The number of cells was measured at the time of the addition of the test compound and 72 hours later after culture by using a Cell Counting Kit-8 (produced by Dojindo Laboratories) according to a protocol recommended by Dojindo Laboratories. […] After completion of the reaction, the absorbance at a wavelength of 450 nm was measured by a microplate reader.
Growth inhibition rate (%)=(C−T)/(C−C0)×100 • T: absorbance of well to which test compound was added • C: absorbance of well to which test compound was not added • C0: absorbance of well measured before addition of compound
Experiment [2] addresses purified recombinant human FGFR2 protein (Homo sapiens (Human), UniProt P21802). The experiment can be described thus: Inhibitory effect on FGFR2 kinase activity. The settings on record: ATP 75 μM. The format is biochemical.
Protocol: Measurement of Inhibitory Effect on FGFR2 Kinase Activity
EDTA (final concentration: 30 mM) diluted with a separation buffer (Caliper Life Sciences, Inc.) was added thereto to terminate the kinase reaction. […] The level of phosphorylation was determined from the quantitative ratio.

purified recombinant human FGFR2 protein, sequence (P21802 22-821): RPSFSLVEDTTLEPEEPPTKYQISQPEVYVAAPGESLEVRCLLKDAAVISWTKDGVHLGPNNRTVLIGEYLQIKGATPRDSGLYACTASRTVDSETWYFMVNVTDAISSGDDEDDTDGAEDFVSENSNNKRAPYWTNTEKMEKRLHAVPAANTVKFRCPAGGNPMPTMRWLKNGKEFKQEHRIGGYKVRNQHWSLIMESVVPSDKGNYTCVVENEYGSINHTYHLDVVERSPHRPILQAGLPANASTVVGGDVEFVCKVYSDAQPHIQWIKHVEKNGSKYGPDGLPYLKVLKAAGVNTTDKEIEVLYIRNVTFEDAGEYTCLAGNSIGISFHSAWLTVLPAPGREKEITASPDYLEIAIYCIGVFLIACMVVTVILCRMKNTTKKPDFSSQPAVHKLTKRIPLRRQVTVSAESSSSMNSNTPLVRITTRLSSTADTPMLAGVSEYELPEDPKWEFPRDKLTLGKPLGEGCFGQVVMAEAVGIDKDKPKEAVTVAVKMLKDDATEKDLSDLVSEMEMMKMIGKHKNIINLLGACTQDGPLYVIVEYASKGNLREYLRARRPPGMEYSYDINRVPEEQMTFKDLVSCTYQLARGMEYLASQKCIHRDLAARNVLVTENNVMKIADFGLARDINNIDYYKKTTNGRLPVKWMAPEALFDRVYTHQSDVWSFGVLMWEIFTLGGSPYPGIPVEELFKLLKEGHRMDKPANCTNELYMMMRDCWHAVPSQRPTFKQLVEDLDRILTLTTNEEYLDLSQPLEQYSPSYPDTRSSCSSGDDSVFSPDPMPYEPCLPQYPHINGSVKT

Take `C=CC(=O)N1C[C@@H](n2cc(C#Cc3cc(OC)cc(OC)c3)c3c(N)ncnc32)C[C@H]1C(=O)OC` [Ex. Compound 66, (2S,4S)-methyl 1-acryloyl-4-(4-amino-5-((3,5-dimethoxyphenyl)ethynyl)-7H-pyrrolo[2,3-d]pyrimidin-7-yl)pyrrolidine-2-carboxylate]: the GI50 in experiment [1] was < 0.0046 µM.
As to `CC(C)c1cc(C#Cc2nn([C@H]3CCN(C(=O)/C=C/CN(C)C)C3)c3ncnc(N)c23)cc(C(C)C)c1` [Ref. Ex. Compound 4, (S)-1-(3-(4-amino-3-((3,5-diisopropylphenyl)ethynyl)-1H-pyrazolo[3,4-d]pyrimidin-1-yl)pyrrolidin-1-yl)-4-(dimethylamino)but-2-en-1-one], the IC50 in experiment [2] was > 10 µM.
